Target: T1, human cathepsin K (Homo sapiens, UniProt P43235)
T1 construct: The proform of cathepsin K was converted to mature cathepsin K by brief exposure to pH 4; made in house; host or cells: baculovirus; Trichoplusia ni High Five cells (virus raised in Sf-9)
T1 sequence (P43235 115-329): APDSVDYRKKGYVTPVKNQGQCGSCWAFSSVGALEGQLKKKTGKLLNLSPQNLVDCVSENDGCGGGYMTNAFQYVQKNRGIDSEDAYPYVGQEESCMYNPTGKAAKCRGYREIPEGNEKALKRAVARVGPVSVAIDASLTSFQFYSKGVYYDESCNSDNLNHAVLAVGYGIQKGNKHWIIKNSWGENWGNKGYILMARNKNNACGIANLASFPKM
Assay: Cathepsin K inhibition assay, human recombinant enzyme, fluorogenic substrate Cbz-Phe-Arg-AMC
Assay type: biochemical
Details: Table 1, human cathepsin K; read-out: h Cat K IC50
Outline: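 Recombinant human cathepsin K (baculovirus/insect-cell proform, activated at pH 4 with 5 mM L-cysteine) assayed with 10 μM Cbz-Phe-Arg-AMC, 10% DMSO, 30 °C.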

IC50 [nM] | SMILES
1 to 10 | CCCC[C@H](NC(=O)O[C@@H]1CN(C(=O)Cc2ccccc2)CC1(C)C)C(=O)C(=O)N[C@H](C)c1ccccc1 [Example 11, (3S)-4,4-Dimethyl-1-(phenylacetyl)pyrrolidinyl (1S)-1-(oxo{[(1R)-1-phenylethyl]amino}acetyl)pentylcarbamate]
1 to 10 | CCCC[C@H](NC(=O)O[C@@H]1CN(C(=O)c2cc(C(C)(C)C)nn2C)CC1(C)C)C(=O)C(=O)N[C@H](C)c1ccccc1 [Example 14, (3S)-1-[(3-tert-Butyl-1-methyl-1H-pyrazol-5-yl)carbonyl]-4,4-dimethylpyrrolidinyl (1S)-1-(oxo{[(1R)-1-phenylethyl]amino}acetyl)pentylcarbamate]
10 to 100 | CCCC[C@H](NC(=O)O[C@@H]1CN(C(=O)c2nc[nH]n2)CC1(C)C)C(=O)C(=O)N[C@H](C)c1ccccc1 [Example 34, (3S)-4,4-Dimethyl-1-(1H-1,2,4-triazol-3-ylcarbonyl)pyrrolidinyl (1S)-1-(oxo{[(1R)-1-phenylethyl]amino}acetyl)pentylcarbamate]
1 to 10 | CCCC[C@H](NC(=O)OC1C(=O)OC[C@]1(C)CC)C(=O)C(=O)N[C@H](C)c1ccccc1 (stereo partly drawn) [Example 3, (4S)-4-ethyl-4-methyl-2-oxotetrahydro-3-furanyl (1S)-1-(oxo{[(1R)-1-phenylethyl]amino}acetyl)pentylcarbamate]
10 to 100 | CCCC[C@H](NC(=O)O[C@@H]1CN(S(=O)(=O)c2ccc3c(c2)OCO3)CC1(C)C)C(=O)C(=O)N[C@H](C)c1ccccc1 [Example 79, (3S)-1-(1,3-Benzodioxol-5-ylsulfonyl)-4,4-dimethylpyrrolidinyl (1S)-1-(oxo{[(1R)-1-phenylethyl]amino}acetyl)pentylcarbamate]
10 to 100 | CCCC[C@H](NC(=O)OC1C(=O)N(C)CC1(C)C)C(=O)C(=O)N[C@H](C)c1ccccc1 (stereo partly drawn) [Example 7, 1,4,4-trimethyl-2-oxo-3-pyrrolidinyl (1S)-1-(oxo{[(1R)-1-phenylethyl]amino}acetyl)pentylcarbamate]
1 to 10 | CCCC[C@H](NC(=O)O[C@@H]1CN(C(=O)c2ccc3[nH]ccc3c2)CC1(C)C)C(=O)C(=O)N[C@H](C)c1ccccc1 [Example 21, (3S)-1-(1H-Indol-5-ylcarbonyl)-4,4-dimethylpyrrolidinyl (1S)-1-(oxo{[(1R)-1-phenylethyl]amino}acetyl)pentylcarbamate]
10 to 100 | CCCC[C@H](NC(=O)O[C@@H]1CN(C(=O)c2csc(-c3ccncc3)n2)CC1(C)C)C(=O)C(=O)N[C@H](C)c1ccccc1 [Example 26, (3S)-4,4-Dimethyl-1-{[2-(4-pyridinyl)-1,3-thiazol-4-yl]carbonyl}pyrrolidinyl (1S)-1-(oxo{[(1R)-1-phenylethyl]amino}acetyl)pentylcarbamate]
10 to 100 | CCCC[C@H](NC(=O)O[C@@H]1CN(C(=O)c2cc3ccccc3n2C)CC1(C)C)C(=O)C(=O)N[C@H](C)c1ccccc1 [Example 28, (3S)-4,4-Dimethyl-1-[(1-methyl-1H-indol-2-yl)carbonyl]pyrrolidinyl (1S)-1-(oxo{[(1R)-1-phenylethyl]amino}acetyl)pentylcarbamate]
10 to 100 | CCCC[C@H](NC(=O)O[C@@H]1CN(C(=O)N2CCCC2)CC1(C)C)C(=O)C(=O)N[C@H](C)c1ccccc1 [Example 74, (3S)-4,4-Dimethyl-1-(1-pyrrolidinylcarbonyl)pyrrolidinyl (1S)-1-(oxo{[(1R)-1-phenylethyl]amino}acetyl)pentylcarbamate]
10 to 100 | CCCC[C@H](NC(=O)O[C@@H]1CN(C(=O)OCCc2ccccc2)CC1(C)C)C(=O)C(=O)N[C@H](C)c1ccccc1 [Example 45, 2-Phenylethyl (4S)-3,3-dimethyl-4-[({[(1S)-1-(oxo {[(1R)-1-phenylethyl]amino}acetyl)pentyl]amino}carbonyl)oxy]-1-pyrrolidinecarboxylate]
1 to 10 | CCCC[C@H](NC(=O)O[C@@H]1CN(C(=O)c2ccno2)CC1(C)C)C(=O)C(=O)N[C@H](C)c1ccccc1 [Example 12]
1 to 10 | CCCC[C@H](NC(=O)O[C@@H]1CN(C(=O)OCc2ccc(-c3ccccc3)cc2)CC1(C)C)C(=O)C(=O)N[C@H](C)c1ccccc1 [Example 40, [1,1′-biphenyl]-4-ylmethyl (4S)-3,3-dimethyl-4-[({[(1S)-1-(oxo{[(1R)-1-phenylethyl]amino}acetyl)pentyl]amino}carbonyl)oxy]-1-pyrrolidinecarboxylate]
1 to 10 | CCCC[C@H](NC(=O)O[C@@H]1CN(C(=O)OCc2cn(-c3ccccc3)nn2)CC1(C)C)C(=O)C(=O)N[C@H](C)c1ccccc1 [Example 46, (1-Phenyl-1H-1,2,3-triazol-4-yl)methyl (4S)-3,3-dimethyl-4-[({[(1S)-1-(oxo{[(1R)-1-phenylethyl]amino}acetyl)pentyl]amino}carbonyl)oxy]-1-pyrrolidinecarboxylate]
1 to 10 | CCCC[C@H](NC(=O)O[C@@H]1C(=O)OCC1(C)C)C(=O)C(=O)N[C@H](C)c1ccccc1 [Example 1, (3S)-4,4-dimethyl-2-oxotetrahydro-3-furanyl (1S)-1-(oxo([(1R)-1-phenylethyl]amino}acetyl)pentylcarbamate]
1 to 10 | CCCC[C@H](NC(=O)O[C@@H]1CN(C(=O)c2ccc3ccccc3c2)CC1(C)C)C(=O)C(=O)N[C@H](C)c1ccccc1 [Example 18, (3S)-4,4-Dimethyl-1-(2-naphthoyl)pyrrolidinyl (1S)-1-(oxo {[(1R)-1-phenylethyl]amino}acetyl)pentylcarbamate]
1 to 10 | CCCC[C@H](NC(=O)O[C@@H]1CN(C(=O)c2ccc3[nH]nnc3c2)CC1(C)C)C(=O)C(=O)N[C@H](C)c1ccccc1 [Example 22, (3S)-1-(1H-1,2,3-Benzotriazol-5-ylcarbonyl)-4,4-dimethylpyrrolidinyl (1S)-1-(oxo{[(1R)-1-phenylethyl]amino}acetyl)pentylcarbamate]
10 to 100 | CCCC[C@H](NC(=O)O[C@@H]1CN(C(=O)O[C@H]2CCOC2)CC1(C)C)C(=O)C(=O)N[C@H](C)c1ccccc1 [Example 43, (3S)-Tetrahydro-3-furanyl (4S)-3,3-dimethyl-4-[({[(1S)-1-(oxo{[(1R)-1-phenylethyl]amino}acetyl)pentyl]amino}carbonyl)oxy]-1-pyrrolidinecarboxylate]

SMILES | IC50 [nM]
CCCC[C@H](NC(=O)O[C@@H]1CN(C(=O)Oc2ccc(Oc3ccccc3)cc2)CC1(C)C)C(=O)C(=O)N[C@H](C)c1ccccc1 [Example 58, 4-Phenoxyphenyl (4S)-3,3-dimethyl-4-[({[(1S)-1-(oxo{[(1R)-1-phenylethyl]amino}acetyl)pentyl]amino}carbonyl)oxy]-1-pyrrolidinecarboxylate] | 10 to 100

Source: patent US7402606B2, “Derivatives of 1-(oxoaminoacetyl) pentylcarbamate as cathepsin K inhibitors for the treatment of bone loss” (SmithKline Beecham Corporation, priority 2002, dated 2008)
